Active and inactive are the calls of the source.

This is an account of results in ChEMBL document CHEMBL1201862, “PubChem BioAssay data set” (2004).

Assay [1] has as its target T1, Calpain-2 catalytic subunit (Sus scrofa, UniProt P43367).
T1 sequence (P43367 whole entry): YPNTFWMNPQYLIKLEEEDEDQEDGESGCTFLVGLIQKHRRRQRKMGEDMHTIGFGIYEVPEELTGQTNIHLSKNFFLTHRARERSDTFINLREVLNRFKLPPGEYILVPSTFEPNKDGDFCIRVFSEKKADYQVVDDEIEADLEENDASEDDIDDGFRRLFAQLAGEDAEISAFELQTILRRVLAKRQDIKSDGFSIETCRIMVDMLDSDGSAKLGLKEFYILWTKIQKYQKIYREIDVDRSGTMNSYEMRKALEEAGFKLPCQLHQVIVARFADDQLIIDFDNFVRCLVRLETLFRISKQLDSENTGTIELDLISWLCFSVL
Briefly: pig calpain II inhibitor potency, dose response, biochemical, fluorogenic peptide substrate (AID 1420). The format is functional.

Assay [2] deals with T2, Ubiquitin-conjugating enzyme E2 N (Homo sapiens, UniProt P61088).
T2 sequence (P61088 whole entry): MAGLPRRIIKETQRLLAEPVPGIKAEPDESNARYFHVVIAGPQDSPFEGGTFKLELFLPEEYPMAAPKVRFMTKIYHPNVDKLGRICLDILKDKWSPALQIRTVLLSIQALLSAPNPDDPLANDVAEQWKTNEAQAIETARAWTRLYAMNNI
The format is functional.

The target of assay [3] is Induced myeloid leukemia cell differentiation protein Mcl-1 (Homo sapiens, UniProt Q07820). The format is functional.
Chain of Induced myeloid leukemia cell differentiation protein Mcl-1 (Q07820 whole entry): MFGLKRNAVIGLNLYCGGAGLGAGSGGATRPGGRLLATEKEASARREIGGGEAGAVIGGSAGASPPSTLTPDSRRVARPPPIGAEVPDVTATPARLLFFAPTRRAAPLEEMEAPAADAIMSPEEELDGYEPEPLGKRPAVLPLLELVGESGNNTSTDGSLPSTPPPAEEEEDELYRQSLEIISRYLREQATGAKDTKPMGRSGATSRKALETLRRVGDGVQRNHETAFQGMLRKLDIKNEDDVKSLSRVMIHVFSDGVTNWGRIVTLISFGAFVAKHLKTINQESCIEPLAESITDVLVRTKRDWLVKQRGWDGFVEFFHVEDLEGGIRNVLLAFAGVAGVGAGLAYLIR
The next assay addresses T3, Mucolipin-3 (Homo sapiens, UniProt Q8TDD5).
T3 sequence (Q8TDD5 whole entry): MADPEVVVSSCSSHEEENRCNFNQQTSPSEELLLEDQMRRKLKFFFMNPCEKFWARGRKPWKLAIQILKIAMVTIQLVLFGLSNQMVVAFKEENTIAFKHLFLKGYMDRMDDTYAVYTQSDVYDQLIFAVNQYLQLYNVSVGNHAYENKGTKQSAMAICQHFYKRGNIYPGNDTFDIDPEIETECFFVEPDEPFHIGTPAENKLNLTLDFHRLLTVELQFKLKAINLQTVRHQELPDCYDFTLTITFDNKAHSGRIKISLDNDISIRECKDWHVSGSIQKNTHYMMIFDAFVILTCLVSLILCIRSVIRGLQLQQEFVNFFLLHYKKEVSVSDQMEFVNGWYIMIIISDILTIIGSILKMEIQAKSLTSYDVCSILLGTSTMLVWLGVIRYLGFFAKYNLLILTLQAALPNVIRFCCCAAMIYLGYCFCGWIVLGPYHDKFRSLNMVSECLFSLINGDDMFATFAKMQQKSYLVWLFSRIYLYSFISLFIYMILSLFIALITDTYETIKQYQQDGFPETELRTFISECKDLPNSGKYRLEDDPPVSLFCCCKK
Briefly: Dose response cell-based high-throughput screening assay for agonists of the transient receptor potential channel ML3 (TRPML3). [Related pubchem assays: 1526, 1424, 1448 ]. The format is functional.

The target of the next assay is Ion channel NompC (Danio rerio, UniProt Q7T1G6). Description: Fluorescence counterscreen assay for TRPML3 agonists: dose response cell-based high-throughput screening assay to identify agonists of the transient receptor potential channel N1 (TRPN1). [Related pubchem assays: 1526, 1424, 1448 ]. The format is functional. For orientation: A counterscreen serves to expose hits that act by an unwanted route or on another target.
Chain of Ion channel NompC (Q7T1G6 whole entry): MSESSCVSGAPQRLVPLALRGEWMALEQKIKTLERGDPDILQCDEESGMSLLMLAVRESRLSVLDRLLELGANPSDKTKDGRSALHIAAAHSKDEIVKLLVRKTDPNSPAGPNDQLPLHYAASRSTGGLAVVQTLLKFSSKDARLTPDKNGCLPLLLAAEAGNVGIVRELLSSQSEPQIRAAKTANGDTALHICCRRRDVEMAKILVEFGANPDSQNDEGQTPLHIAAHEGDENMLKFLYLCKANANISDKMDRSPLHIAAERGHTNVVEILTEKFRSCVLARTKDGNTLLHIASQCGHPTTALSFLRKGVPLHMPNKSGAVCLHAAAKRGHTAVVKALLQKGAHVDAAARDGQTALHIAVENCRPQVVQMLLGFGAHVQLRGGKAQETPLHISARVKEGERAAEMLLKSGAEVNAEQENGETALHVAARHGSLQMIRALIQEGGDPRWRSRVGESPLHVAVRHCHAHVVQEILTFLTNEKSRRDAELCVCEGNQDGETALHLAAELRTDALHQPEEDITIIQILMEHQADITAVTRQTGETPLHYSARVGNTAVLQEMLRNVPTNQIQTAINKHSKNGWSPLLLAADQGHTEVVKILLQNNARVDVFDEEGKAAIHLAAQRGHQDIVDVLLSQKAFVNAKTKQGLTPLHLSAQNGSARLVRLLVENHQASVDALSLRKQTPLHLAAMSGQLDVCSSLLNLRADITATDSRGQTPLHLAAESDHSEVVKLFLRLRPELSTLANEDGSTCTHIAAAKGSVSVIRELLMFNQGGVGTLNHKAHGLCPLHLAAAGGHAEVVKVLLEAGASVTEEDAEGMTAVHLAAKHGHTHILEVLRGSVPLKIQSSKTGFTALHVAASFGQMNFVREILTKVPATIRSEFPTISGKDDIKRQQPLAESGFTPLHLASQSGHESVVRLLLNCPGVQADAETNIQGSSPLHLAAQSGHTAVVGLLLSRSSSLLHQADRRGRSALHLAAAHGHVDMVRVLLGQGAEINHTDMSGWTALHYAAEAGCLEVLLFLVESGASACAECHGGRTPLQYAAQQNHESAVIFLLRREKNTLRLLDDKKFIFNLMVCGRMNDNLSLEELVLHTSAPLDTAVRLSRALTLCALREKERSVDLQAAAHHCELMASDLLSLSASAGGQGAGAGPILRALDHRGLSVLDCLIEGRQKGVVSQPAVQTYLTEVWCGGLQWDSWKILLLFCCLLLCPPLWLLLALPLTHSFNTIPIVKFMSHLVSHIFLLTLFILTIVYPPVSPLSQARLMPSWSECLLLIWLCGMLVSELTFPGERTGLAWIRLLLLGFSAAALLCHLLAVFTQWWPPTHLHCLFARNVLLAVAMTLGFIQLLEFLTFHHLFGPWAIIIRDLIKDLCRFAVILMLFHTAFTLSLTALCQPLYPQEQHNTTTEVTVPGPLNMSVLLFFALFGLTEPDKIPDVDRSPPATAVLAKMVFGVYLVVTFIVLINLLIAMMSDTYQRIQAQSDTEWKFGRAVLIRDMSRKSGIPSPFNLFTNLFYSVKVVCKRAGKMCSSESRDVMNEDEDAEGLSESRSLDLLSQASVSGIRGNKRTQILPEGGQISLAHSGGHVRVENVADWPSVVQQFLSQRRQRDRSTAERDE

The target of assay [4] is T4, Mannose-6-phosphate isomerase (Homo sapiens, UniProt P34949).
T4 sequence (P34949 whole entry): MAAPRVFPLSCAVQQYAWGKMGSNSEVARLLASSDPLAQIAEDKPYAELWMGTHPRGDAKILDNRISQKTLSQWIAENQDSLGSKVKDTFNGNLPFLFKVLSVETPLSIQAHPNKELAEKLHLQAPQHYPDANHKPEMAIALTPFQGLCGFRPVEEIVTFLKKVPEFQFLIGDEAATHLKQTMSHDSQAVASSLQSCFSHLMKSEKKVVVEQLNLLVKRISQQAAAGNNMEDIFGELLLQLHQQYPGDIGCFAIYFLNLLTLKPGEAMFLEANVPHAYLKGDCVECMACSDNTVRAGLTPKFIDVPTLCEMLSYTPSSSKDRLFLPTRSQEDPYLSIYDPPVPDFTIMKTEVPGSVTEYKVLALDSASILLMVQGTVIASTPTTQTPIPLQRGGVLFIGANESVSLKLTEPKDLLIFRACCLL
Briefly: human PMI inhibitors, high substrate, primary screen, biochemical, fluorescence intensity, high mannose 6-phosphate (AID 1220).

For assay [5], the target named is T5, Replicative DNA helicase DnaB (Mycobacterium tuberculosis, UniProt P9WMR3).
T5 sequence (P9WMR3 whole entry): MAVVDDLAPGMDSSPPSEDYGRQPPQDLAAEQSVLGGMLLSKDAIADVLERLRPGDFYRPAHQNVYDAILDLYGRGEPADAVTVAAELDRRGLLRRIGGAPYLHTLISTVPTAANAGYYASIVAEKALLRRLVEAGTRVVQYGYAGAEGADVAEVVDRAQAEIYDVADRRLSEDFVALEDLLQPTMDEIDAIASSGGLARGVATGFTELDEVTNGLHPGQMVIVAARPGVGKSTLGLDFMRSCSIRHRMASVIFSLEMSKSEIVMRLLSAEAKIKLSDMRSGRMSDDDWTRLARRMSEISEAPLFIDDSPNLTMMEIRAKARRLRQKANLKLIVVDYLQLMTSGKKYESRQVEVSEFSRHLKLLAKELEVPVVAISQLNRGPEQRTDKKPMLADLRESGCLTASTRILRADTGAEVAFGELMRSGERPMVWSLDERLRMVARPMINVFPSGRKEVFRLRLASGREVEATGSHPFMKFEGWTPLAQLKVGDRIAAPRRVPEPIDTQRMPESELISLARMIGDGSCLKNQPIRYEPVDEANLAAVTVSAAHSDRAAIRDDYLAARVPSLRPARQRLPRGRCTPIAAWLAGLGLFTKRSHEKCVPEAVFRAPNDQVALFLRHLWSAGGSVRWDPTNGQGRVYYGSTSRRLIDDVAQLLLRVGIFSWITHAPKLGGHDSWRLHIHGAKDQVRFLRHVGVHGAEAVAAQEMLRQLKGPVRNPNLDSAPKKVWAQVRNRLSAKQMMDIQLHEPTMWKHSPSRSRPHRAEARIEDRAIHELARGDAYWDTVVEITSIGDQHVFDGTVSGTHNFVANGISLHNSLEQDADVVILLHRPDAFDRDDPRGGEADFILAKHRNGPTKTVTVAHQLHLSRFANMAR
Briefly: DnaB intein splicing inhibitors, dose response, biochemical, cell-free fluorescence (AID 449749). Type of assay: functional.

For another assay, the target named is T6, Protein RecA (Mycobacterium tuberculosis, UniProt P9WHJ3).
T6 sequence (P9WHJ3 whole entry): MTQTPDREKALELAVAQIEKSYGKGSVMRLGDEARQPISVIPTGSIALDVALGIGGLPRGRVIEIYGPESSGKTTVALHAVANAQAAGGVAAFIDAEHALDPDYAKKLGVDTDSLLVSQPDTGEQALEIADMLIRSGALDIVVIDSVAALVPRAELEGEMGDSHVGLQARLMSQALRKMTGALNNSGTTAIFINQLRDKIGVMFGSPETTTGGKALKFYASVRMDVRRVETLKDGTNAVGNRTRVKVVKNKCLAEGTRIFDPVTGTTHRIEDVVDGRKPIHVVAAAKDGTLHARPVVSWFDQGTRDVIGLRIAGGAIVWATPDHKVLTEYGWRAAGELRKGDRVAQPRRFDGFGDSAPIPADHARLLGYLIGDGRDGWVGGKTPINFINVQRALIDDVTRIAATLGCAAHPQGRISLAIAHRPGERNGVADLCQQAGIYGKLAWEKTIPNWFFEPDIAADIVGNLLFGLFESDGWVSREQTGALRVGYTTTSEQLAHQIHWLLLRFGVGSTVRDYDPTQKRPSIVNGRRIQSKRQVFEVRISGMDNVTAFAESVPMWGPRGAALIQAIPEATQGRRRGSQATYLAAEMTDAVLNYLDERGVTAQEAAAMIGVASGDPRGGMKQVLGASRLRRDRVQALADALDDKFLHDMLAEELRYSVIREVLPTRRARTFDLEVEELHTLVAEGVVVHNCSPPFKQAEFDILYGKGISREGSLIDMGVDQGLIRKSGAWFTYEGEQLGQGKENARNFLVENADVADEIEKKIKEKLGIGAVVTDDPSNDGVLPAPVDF
Description: Fluorescence Cell-Free Homogeneous Dose Retest to Identify Inhibitors of RecA-Intein Splicing Activity. [Related pubchem assays (depositor defined):AID2097, AID2223, AID489010, AID492950]. The format is functional.

The next assay concerns the target T7, Leucine aminopeptidase (Plasmodium falciparum 3D7, UniProt Q8IL11).
T7 sequence (Q8IL11 whole entry): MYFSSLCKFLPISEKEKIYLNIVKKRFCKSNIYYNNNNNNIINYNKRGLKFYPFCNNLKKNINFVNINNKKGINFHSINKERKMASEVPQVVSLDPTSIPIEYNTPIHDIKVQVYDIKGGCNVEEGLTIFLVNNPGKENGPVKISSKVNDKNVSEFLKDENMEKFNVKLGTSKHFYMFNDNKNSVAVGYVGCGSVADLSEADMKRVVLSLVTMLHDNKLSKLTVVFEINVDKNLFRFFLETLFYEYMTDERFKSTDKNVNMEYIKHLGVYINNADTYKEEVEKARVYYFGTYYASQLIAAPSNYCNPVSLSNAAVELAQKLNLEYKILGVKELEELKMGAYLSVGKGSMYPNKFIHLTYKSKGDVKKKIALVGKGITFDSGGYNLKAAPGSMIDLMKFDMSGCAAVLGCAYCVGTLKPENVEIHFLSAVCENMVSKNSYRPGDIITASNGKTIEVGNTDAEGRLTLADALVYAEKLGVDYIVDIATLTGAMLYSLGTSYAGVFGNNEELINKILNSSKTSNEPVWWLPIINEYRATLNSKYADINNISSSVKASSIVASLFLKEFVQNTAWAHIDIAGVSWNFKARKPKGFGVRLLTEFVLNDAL
Briefly: P. falciparum M17LAP inhibitors, primary screen, biochemical, fluorogenic H-Leu-NHMec substrate, 1536-well (AID 1619). Type of assay: functional.

Assay [6] can be described thus: Shn3 3'UTR reporter inhibitors, dose response, cell-based, Clone20 osteoblasts, firefly luciferase, cherry-picked (AID 624132).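 Further: firefly luciferase luminescence from reporter carrying the Shn3 3'UTR in osteoblasts.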 The format is functional.
Assay [7] is described as follows: HepG2 cell cytotoxicity, dose response, cytotoxicity control for Shn3 inhibitor project, CellTiter-Glo, cherry-picked (AID 624134). Type of assay: functional, cell-based.
Assay [8] can be described thus: control 3'UTR Renilla luciferase suppression, dose response, counter-screen for Shn3 inhibitor project, cell-based, Clone20-Shn3RL, cherry-picked (AID 624133). Type of assay: functional.
Assay [9] can be described thus: inhibitors of HIV Env-driven cell fusion, dose response, cherry-pick (AID 652057). The format is functional, cell-based.
Assay [10] can be described thus: ZM109 Env clade C HIV-1 fusion inhibitors, dose response, HeLa effector, CEM target cells, luciferase, cherry-pick (AID 652058). Type of assay: functional, cell-based.
A short description of assay [11]: off-target signal loss in HeLa-CEM21 co-culture – HeLa F-luc CTL cells, cherry-picked, counter-screen for HIV-1 Env fusion inhibitor project, dose response (AID 652040).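 Further: potency for signal decrease marking cytotoxic or nonspecific inhibition.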 Type of assay: functional, cell-based.
A short description of assay [12]: inhibitors of clade B AD8 Env fusion, dose response, cell-based, cherry-pick (AID 652062).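 Further: luciferase signal from cell-cell fusion driven by HIV-1 clade B AD8 Env; potency is for inhibitors of fusion seen as a drop in luminescence.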 Type of assay: functional.

Take `Cc1ccc(/N=C2\C(Cl)=C(O)OC2OC(=O)c2ccccc2C)cc1` (stereo unspecified): the values for the IC50 in assay [1] and in [2] were 12.6 µM (not active) and > 20 µM (inactive), respectively.

In the case of `CC(C)Oc1ccc(CCc2nnc(S)n2Cc2ccccc2)cc1`, in assay [1], the half-inhibitory concentration (IC50) (as a rule, the midpoint of a concentration-inhibition curve) is given as 4.67 µM (not active).

On to `COc1ccc(NC(=O)CN2C(=O)/C(=C3\SC(=S)N(C4CCS(=O)(=O)C4)C3=O)c3ccccc32)cc1` (stereo unspecified), for which the half-inhibitory concentration (IC50) in [3] was 3.39 µM (active).

Turning to `C=C(C)Cn1c(C)cc(C)c(S(=O)(=O)c2ccccc2C)c1=O`, the EC50 (commonly the concentration at which the effect is half-maximal) on Mucolipin-3 is 5.9 µM (active); on Ion channel NompC, > 29.9 µM (not active).

Consider `CCCC(=O)OCCNc1cc(SCCC(=O)OC)c2nonc2c1[N+](=O)[O-]`, for which the 50% inhibitory concentration (IC50) in assay [4] was > 50 µM (not active). In assay [5], the AC50 – broadly, the concentration giving half of the maximal activity seen – is 2.88 µM (active). Also, on Protein RecA, the concentration giving a half-maximal response (EC50) was 4.87 µM (active).

Consider `Cc1ccc(Nc2cnn(C34CC5CC(CC(CC(=O)O)(C5)C3)C4)c(=O)c2Cl)cc1`, for which the IC50 on Leucine aminopeptidase was 44.1 µM (active).

As to `CCc1nnc(NS(=O)(=O)c2ccc(NC(=O)COc3ccc4ccccc4c3)cc2)s1`, the 50% inhibitory concentration (IC50) on Leucine aminopeptidase is 5.1 µM (active).

For the compound `CN(C)c1ccc(C(CNC(=O)c2ccc(C#N)cc2)c2c[nH]c3ccccc23)cc1` (stereo unspecified), in [3], the concentration for half-maximal inhibition (IC50) is 2.78 µM (not active).

For `CC1CCC2C(=O)N(c3ccc(Cc4ccncc4)cc3)C(=O)C2C1` (stereo unspecified), the 50% inhibitory concentration (IC50) in assay [1] is on record as 13.3 µM (not active). The concentration at half-maximal activity (AC50) in [6] was 2.65 µM (active); in assay [7], 47.7 µM (active); in [8], 5.74 µM (active).

As for `O=C(O)CC12CC3CC(C1)CC(n1ncc(NCc4ccc(F)cc4)c(Cl)c1=O)(C3)C2`, at Leucine aminopeptidase, the concentration for half-maximal inhibition (IC50) was 54 µM (active).

`CN(C1CCCCC1)S(=O)(=O)c1cccc(C#N)c1`: the EC50 was 3.58 µM (active) at Mucolipin-3 and > 29.9 µM (not active) at Ion channel NompC.

As for `CC(C)(C)C1CCc2onc(C(=O)NCc3ccc(F)cc3)c2C1` (stereo unspecified), the IC50 in [1] is on record as > 50 µM (not active). The AC50 in assay [9] is 23 µM (active); in assay [10], 2.91 µM (active); in assay [11], 37 µM (active); in assay [12], 21.9 µM (active).

In the case of `O=C1c2ccccc2CCCC12N=NCC2c1cccc2ccccc12` (stereo unspecified), the results for the EC50 at Mucolipin-3 and at Ion channel NompC were 3.31 µM (active) and > 29.9 µM (not active), respectively.
